From patent US20240174637A1, “DEGRADERS OF GRK2 AND USES THEREOF” (Sonata Therapeutics, Inc., priority 2021, published 2024)
Counter-ions that a name gives are not always drawn.

Legend:
[1] = target: T1, GRK2 (Homo sapiens, UniProt P25098); assay: GRK2 Inhibition Assay (TR-FRET, Example 1); type: biochemical; conditions: Table 4; Example 1 assay; read-out: Enzymatic GRK2 IC50: Av IC50 GRK2
T1 sequence (P25098 1-689): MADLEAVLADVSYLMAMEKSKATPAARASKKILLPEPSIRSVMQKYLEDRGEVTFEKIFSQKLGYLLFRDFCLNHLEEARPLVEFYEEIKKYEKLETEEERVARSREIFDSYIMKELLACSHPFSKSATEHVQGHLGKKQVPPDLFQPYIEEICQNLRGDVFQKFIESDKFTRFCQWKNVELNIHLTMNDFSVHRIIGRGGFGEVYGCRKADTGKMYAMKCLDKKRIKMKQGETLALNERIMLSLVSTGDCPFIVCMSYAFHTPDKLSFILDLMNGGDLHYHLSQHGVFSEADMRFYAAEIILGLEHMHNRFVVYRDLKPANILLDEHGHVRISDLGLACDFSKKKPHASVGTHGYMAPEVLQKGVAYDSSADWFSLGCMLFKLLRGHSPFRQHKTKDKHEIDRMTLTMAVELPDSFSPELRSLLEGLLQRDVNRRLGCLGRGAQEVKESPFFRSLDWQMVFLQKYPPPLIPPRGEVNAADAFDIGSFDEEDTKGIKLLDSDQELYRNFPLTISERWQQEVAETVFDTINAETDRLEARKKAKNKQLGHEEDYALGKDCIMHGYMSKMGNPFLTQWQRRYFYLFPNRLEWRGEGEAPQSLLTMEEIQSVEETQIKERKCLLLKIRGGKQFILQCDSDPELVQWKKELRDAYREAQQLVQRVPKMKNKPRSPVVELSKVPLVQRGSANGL
Outline: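 TR-FRET phosphorylation readout: Eu anti-TopoIIα antibody with EDTA added after a 90 min RT kinase reaction of 1 nM GRK2, 7 μM ATP and 50 nM ULight-TopoIIα. Compounds were pre-incubated with enzyme 30 min at room temperature beforehand.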

[2] = test system: PAXF1657 EV; assay: 7-day cellular proliferation assay (CellTiter-Glo), PAXF1657 EV; type: cell-based; conditions: proliferation, read-out: GeoMean IC50 (UM) PAXF1657 EV
Outline: (§1)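 500 cells/well, RPMI1640 + 10% H.I. FBS, adhered overnight at 37° C. Compound 10-pt dilution, 30 μM-0.0002 μM final, 0.3% DMSO. 3 d, media + compound replaced, further 4 d. Viability by CellTiter-Glo; untreated plates read at time of dosing.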

[3] = test system: PAXF1657 KO Clone #4; assay: 7-day cellular proliferation assay (CellTiter-Glo), PAXF1657 KO Clone #4; type: cell-based; conditions: proliferation, read-out: GeoMean IC50 (uM) PAXF1657 KO Clone #4
Outline: as §1

[4] = target: T1, GRK2; assay: GRK2 Degradation Assay and Western Blot in PAXF1657 cells; type: cell-based; design: endogenous in cells; host or cells: PAXF1657; conditions: read-out: Degradation Assay - 3 point: Degradation (%); for inhibition at 0.3 µM: Conc 0.3 uM; for inhibition at 1 µM: Conc 1 uM; for inhibition at 3 µM: Conc 3 uM
Outline: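 GRK2 degradation judged by immunoblot: NP40 lysates separated by SDS-PAGE and probed for GRK2 and β-actin, with HRP/ECL detection. Lysates came from PAXF1657 cells exposed to 0–10 μM compound for 6–24 h after reaching 70% confluency.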

C[C@@H](NC(=O)c1cccc(NCc2nnc(-c3ccncn3)n2C)c1)c1ccc(OCCN2CCN(c3ccc4c(c3)CN(C3CCC(=O)NC3=O)C4=O)CC2)cc1 (stereo partly drawn) [Compound D174, N-((1R)-1-(4-(2-(4-(2-(2,6-dioxopiperidin-3-yl)-1-oxoisoindolin-5-yl)piperazin-1-yl)ethoxy)phenyl)ethyl)-3-((4-methyl-5-(pyrimidin-4-yl)-4H-1,2,4-triazol-3-yl)methylamino)benzamide hydrochloride]
IC50 [1]: 0.012 µM
IC50 [2]: < 0.000458 µM
IC50 [3]: > 30 µM
inhibition at 0.3 µM [4]: 63.6%
inhibition at 1 µM [4]: 50.2%
inhibition at 3 µM [4]: 28.3%

C[C@@H](NC(=O)c1cccc(NCc2nnc(-c3ccncn3)n2C)c1)c1ccc(OCCCCN2CCN(c3ccc4c(c3)CN(C3CCC(=O)NC3=O)C4=O)CC2)cc1 (stereo partly drawn) [Compound D175, N-((1R)-1-(4-(4-(4-(2-(2,6-dioxopiperidin-3-yl)-1-oxoisoindolin-5-yl)piperazin-1-yl)butoxy)phenyl)ethyl)-3-((4-methyl-5-(pyrimidin-4-yl)-4H-1,2,4-triazol-3-yl)methylamino)benzamide hydrochloride]
IC50 [1]: 0.0103 µM
IC50 [2]: < 0.000458 µM
IC50 [3]: > 30 µM
inhibition at 0.3 µM [4]: 87.7%
inhibition at 1 µM [4]: 89.2%
inhibition at 3 µM [4]: 82.8%

C[C@@H](NC(=O)c1cccc(NCc2nnc(-c3ccncn3)n2C)c1)c1cccc(OCC(=O)N2CCN(c3ccc4c(c3)CN(C3CCC(=O)NC3=O)C4=O)CC2)c1 (stereo partly drawn) [Compound D176, N-((1R)-1-(3-(2-(4-(2-(2,6-dioxopiperidin-3-yl)-1-oxoisoindolin-5-yl)piperazin-1-yl)-2-oxoethoxy)phenyl)ethyl)-3-((4-methyl-5-(pyrimidin-4-yl)-4H-1,2,4-triazol-3-yl)methylamino)benzamide]
IC50 [1]: 0.0241 µM
IC50 [2]: 8.02 µM
IC50 [3]: > 30 µM
inhibition at 0.3 µM [4]: 33%
inhibition at 1 µM [4]: 24.4%
inhibition at 3 µM [4]: 10.7%

C[C@@H](NC(=O)c1cccc(NCc2nnc(-c3ccncn3)n2C)c1)c1ccc(OCC(=O)N2CCN(c3ccc4c(c3)CN(C3CCC(=O)NC3=O)C4=O)CC2)cc1 (stereo partly drawn) [Compound D177, N-((1R)-1-(4-(2-(4-(2-(2,6-dioxopiperidin-3-yl)-1-oxoisoindolin-5-yl)piperazin-1-yl)-2-oxoethoxy)phenyl)ethyl)-3-((4-methyl-5-(pyrimidin-4-yl)-4H-1,2,4-triazol-3-yl)methylamino)benzamide]
IC50 [1]: 0.0102 µM
IC50 [2]: 27 µM
IC50 [3]: > 30 µM
inhibition at 0.3 µM [4]: 13.2%
inhibition at 1 µM [4]: 20.9%
inhibition at 3 µM [4]: 36.8%

C[C@@H](NC(=O)c1cccc(NCc2nnc(-c3ccncn3)n2C)c1)c1cccc(OCCCCCCOCCOCCOCCCC(=O)N2CCN(c3cc4c(cc3F)C(=O)N(C3CCC(=O)NC3=O)C4=O)CC2)c1 (stereo partly drawn) [Compound D178, N-((1R)-1-(3-((6-(2-(2-(4-(4-(2-(2,6-dioxopiperidin-3-yl)-6-fluoro-1,3-dioxoisoindolin-5-yl)piperazin-1-yl)-4-oxobutoxy)ethoxy)ethoxy)hexyl)oxy)phenyl)ethyl)-3-(((4-methyl-5-(pyrimidin-4-yl)-4H-1,2,4-triazol-3-yl)methyl)amino)benzamide]
IC50 [1]: 0.0116 µM
IC50 [2]: 0.31 µM
IC50 [3]: > 30 µM
inhibition at 0.3 µM [4]: 45%
inhibition at 1 µM [4]: 72%
inhibition at 3 µM [4]: 84%

C[C@@H](NC(=O)c1cccc(NCc2nnc(-c3ccncn3)n2C)c1)c1cccc(OCCCCCCOCCOCCOCCCC(=O)N2CCN(c3ccc4c(c3)CN(C3CCC(=O)NC3=O)C4=O)CC2)c1 (stereo partly drawn) [Compound D179, N-((1R)-1-(3-((6-(2-(2-(4-(4-(2-(2,6-dioxopiperidin-3-yl)-1-oxoisoindolin-5-yl)piperazin-1-yl)-4-oxobutoxy)ethoxy)ethoxy)hexyl)oxy)phenyl)ethyl)-3-(((4-methyl-5-(pyrimidin-4-yl)-4H-1,2,4-triazol-3-yl)methyl)amino)benzamide]
IC50 [1]: 0.00636 µM
IC50 [2]: 0.14 µM
IC50 [3]: > 30 µM
inhibition at 0.3 µM [4]: 58%
inhibition at 1 µM [4]: 82%
inhibition at 3 µM [4]: 88%
